Data published in patent publication US20220096516A1, “OLIGONUCLEOTIDE MOLECULE AND APPLICATION THEREOF IN TUMOR THERAPY” (Ractigen Therapeutics, priority 2019, published 2022).
d = 2'-deoxy (DNA); r = 2'-OH (RNA)

System: LHPP gene
Assay: High-throughput screening of saRNAs targeting LHPP promoter: LHPP mRNA by one-step RT-qPCR in Huh7 cells
Type: cell-based, human
Details: 10 nM saRNA, 72 hours, relative to control (Mock)
Method: Human liver cancer cell line Huh7 was cultured in DMEM medium (Gibco), containing 10% of calf serum (Sigma-Aldrich) and 1% of penicillin/streptomycin (Gibco). The cells were cultured at 5% CO2 and 37° C. According to the instructions provided by the manufacturer, RNAiMax (Invitrogen, Carlsbad, Calif.) was used to transfect small activating RNAs at a concentration of 10 nM (unless otherwise specified).
At the end of transfection, the media were discarded, and each well was washed with 150 μL of PBS once. After discarding the PBS, 50 μL of cell lysis buffer (Takara) was added to each well and incubated at room temperature for 5 min. 1 μL of the resulted cell lysis was taken from each well and analyzed by qPCR on an ABI 7500 fast real-time PCR system (Applied Biosystems) using a one-step TB Green™ PrimeScrip™ RT-PCR kit II (Takara, RR086A) Each transfection sample was repeatedly amplified in 3 replicate wells.
Reaction conditions were as follows: reverse transcription reaction (stage 1): 5 min at 42° C., 10 s at 95° C.; PCR reaction (stage 2): 5 s at 95° C., 20 s at 60° C., 45 cycles of amplification. HPRT1 and TBP were used as internal reference genes. PCR primers used for amplifying LHPP, HPRT1 and TBP genes are shown in Table 2, wherein LHPP was amplified using the LHPP F1/R1 primer pair.
To calculate the relative expression level (Erel) of LHPP (target gene) in an saRNA-transfected sample relative to control treatment (Mock), the Ct values of the target gene and the two internal reference genes were substituted into formula 1
Erel=2^(CtT^m^-CtT^s^)/((2^(CtR1^m^-CtR1^s^)*2^(CtR2^m^-CtR2^s^))^(1/2))
wherein CtTm was the Ct value of the target gene from the control (Mock) sample; CtTs was the Ct value of the target gene from the saRNA-treated sample; CtR1m was the Ct value of the internal reference gene 1 from the control (Mock) sample; CtR1s was the Ct value of the internal reference gene 1 from the saRNA-treated sample; CtR2m was the Ct value of the internal reference gene 2 from the control (Mock) sample; and CtR2s was the Ct value of the internal reference gene 2 from the saRNA-treated sample.
In order to obtain saRNAs capable of activating LHPP transcription, Huh7 cells were transfected with each of the aforementioned 290 saRNAs with a transfection concentration of 10 nM, and 72 hours later, according to the same method as described above, the cells were lysed and analyzed by one-step RT-qPCR to obtain the relative (compared with the control (Mock)) expression level of LHPP gene for each saRNA-treated sample. […] The observed maximum activation and maximum inhibition is 3.46 fold and 0.49 fold, respectively, saRNAs with activating activity are referred to as activating saRNAs, and the saRNAs with inhibiting activity are referred to as inhibiting saRNAs.

Substance | Fold of changes in relative LHPP mRNA expression level | Fold of changes in relative LHPP mRNA expression level (log2)
RAG7-140: saRNA duplex; sense UUUUCCUGCUCUUUGUCCGTT (SEQ ID NO: 74), antisense CGGACAAAGAGCAGGAAAATT (SEQ ID NO: 238) (sugars from the 5' end r19 d2, backbone not given here) | 1.28 fold | 0.36 log2
RAG7-142: saRNA duplex; sense GCUUUUCCUGCUCUUUGUCTT (SEQ ID NO: 164), antisense GACAAAGAGCAGGAAAAGCTT (SEQ ID NO: 328) (sugars from the 5' end r19 d2, backbone not given here) | 1.10 fold | 0.14 log2
RAG7-143: saRNA duplex; sense UGCUUUUCCUGCUCUUUGUTT (SEQ ID NO: 102), antisense ACAAAGAGCAGGAAAAGCATT (SEQ ID NO: 266) (sugars from the 5' end r19 d2, backbone not given here) | 1.21 fold | 0.28 log2
RAG7-144: saRNA duplex; sense CUGCUUUUCCUGCUCUUUGTT (SEQ ID NO: 18), antisense CAAAGAGCAGGAAAAGCAGTT (SEQ ID NO: 182) (sugars from the 5' end r19 d2, backbone not given here) | 1.56 fold | 0.64 log2
RAG7-145: saRNA duplex; sense UCUGCUUUUCCUGCUCUUUTT (SEQ ID NO: 9), antisense AAAGAGCAGGAAAAGCAGATT (SEQ ID NO: 173) (sugars from the 5' end r19 d2, backbone not given here) | 1.71 fold | 0.77 log2
RAG7-146: saRNA duplex; sense UUCUGCUUUUCCUGCUCUUTT (SEQ ID NO: 10), antisense AAGAGCAGGAAAAGCAGAATT (SEQ ID NO: 174) (sugars from the 5' end r19 d2, backbone not given here) | 1.69 fold | 0.76 log2
RAG7-147: saRNA duplex; sense UUUCUGCUUUUCCUGCUCUTT (SEQ ID NO: 66), antisense AGAGCAGGAAAAGCAGAAATT (SEQ ID NO: 230) (sugars from the 5' end r19 d2, backbone not given here) | 1.31 fold | 0.39 log2
RAG7-148: saRNA duplex; sense UUUUCUGCUUUUCCUGCUCTT (SEQ ID NO: 67), antisense GAGCAGGAAAAGCAGAAAATT (SEQ ID NO: 231) (sugars from the 5' end r19 d2, backbone not given here) | 1.30 fold | 0.38 log2
RAG7-149: saRNA duplex; sense GUUUUCUGCUUUUCCUGCUTT (SEQ ID NO: 99), antisense AGCAGGAAAAGCAGAAAACTT (SEQ ID NO: 263) (sugars from the 5' end r19 d2, backbone not given here) | 1.22 fold | 0.29 log2
RAG7-150: saRNA duplex; sense UGUUUUCUGCUUUUCCUGCTT (SEQ ID NO: 32), antisense GCAGGAAAAGCAGAAAACATT (SEQ ID NO: 196) (sugars from the 5' end r19 d2, backbone not given here) | 1.48 fold | 0.56 log2
RAG7-151: saRNA duplex; sense UUGUUUUCUGCUUUUCCUGTT (SEQ ID NO: 100), antisense CAGGAAAAGCAGAAAACAATT (SEQ ID NO: 264) (sugars from the 5' end r19 d2, backbone not given here) | 1.22 fold | 0.28 log2
RAG7-160: saRNA duplex; sense CUUAGGGACUUGUUUUCUGTT (SEQ ID NO: 153), antisense CAGAAAACAAGUCCCUAAGTT (SEQ ID NO: 317) (sugars from the 5' end r19 d2, backbone not given here) | 1.11 fold | 0.15 log2
RAG7-162: saRNA duplex; sense UUCUUAGGGACUUGUUUUCTT (SEQ ID NO: 19), antisense GAAAACAAGUCCCUAAGAATT (SEQ ID NO: 183) (sugars from the 5' end r19 d2, backbone not given here) | 1.56 fold | 0.64 log2
RAG7-165: saRNA duplex; sense CCUUUCUUAGGGACUUGUUTT (SEQ ID NO: 152), antisense AACAAGUCCCUAAGAAAGGTT (SEQ ID NO: 316) (sugars from the 5' end r19 d2, backbone not given here) | 1.11 fold | 0.16 log2
RAG7-168: saRNA duplex; sense UGACCUUUCUUAGGGACUUTT (SEQ ID NO: 91), antisense AAGUCCCUAAGAAAGGUCATT (SEQ ID NO: 255) (sugars from the 5' end r19 d2, backbone not given here) | 1.24 fold | 0.31 log2
RAG7-169: saRNA duplex; sense UUGACCUUUCUUAGGGACUTT (SEQ ID NO: 61), antisense AGUCCCUAAGAAAGGUCAATT (SEQ ID NO: 225) (sugars from the 5' end r19 d2, backbone not given here) | 1.34 fold | 0.42 log2
RAG7-170: saRNA duplex; sense UUUGACCUUUCUUAGGGACTT (SEQ ID NO: 132), antisense GUCCCUAAGAAAGGUCAAATT (SEQ ID NO: 296) (sugars from the 5' end r19 d2, backbone not given here) | 1.16 fold | 0.21 log2
RAG7-171: saRNA duplex; sense CUUUGACCUUUCUUAGGGATT (SEQ ID NO: 80), antisense UCCCUAAGAAAGGUCAAAGTT (SEQ ID NO: 244) (sugars from the 5' end r19 d2, backbone not given here) | 1.27 fold | 0.34 log2
RAG7-172: saRNA duplex; sense CCUUUGACCUUUCUUAGGGTT (SEQ ID NO: 81), antisense CCCUAAGAAAGGUCAAAGGTT (SEQ ID NO: 245) (sugars from the 5' end r19 d2, backbone not given here) | 1.27 fold | 0.34 log2
RAG7-174: saRNA duplex; sense UGCCUUUGACCUUUCUUAGTT (SEQ ID NO: 49), antisense CUAAGAAAGGUCAAAGGCATT (SEQ ID NO: 213) (sugars from the 5' end r19 d2, backbone not given here) | 1.38 fold | 0.47 log2
